{
  "source": "patent US20190224186A1",
  "about": "“TREATMENT OF MULTIPLE SCLEROSIS WITH CHS-131” (InteKrin Therapeutics, Inc., priority 2016, published 2019)",
  "assay_type_in_all_cases": "in vivo, human",
  "key": {"[1]": {"system": "MS patients in the relapsing and remitting course of the disease (RRMS)", "test": "Slope of cortical atrophy at six months as a function of CE lesion number", "details": "n=70", "method": "To evaluate the connection between the reduction in cortical volume loss and CHS-131 treatment, cortical volume was compared to observed CE lesion in the MS patients. […] The slopes of cortical atrophy at six months as a function of CE lesion number at six months was plotted for the placebo group (n=69), the CHS-131 1 mg/day group (n=70), and the CHS-131 3 mg/day group (n=70). For the placebo, 1 mg/day, and 3 mg/day groups the slopes were: −0.040391, −0.019631, and −0.001783, respectively. […] Thus, the reduction in CE lesions as a result of CHS-131 treatment is correlated with a reduction in the loss of cortical volume in MS patients."}, "[2]": {"system": "MS patients in the relapsing and remitting course of the disease (RRMS)", "test": "Phase 2 trial: change in cortical (neocortical) volume by MRI, SIENAX-MTP3", "details": "3 mg", "method": "Upon completion of the six-month trial period described in Example 1 the change in neocortical volume and whole brain volume was evaluated. Table 9 below reports the change in neocortical volumes at 3 months and at 6 months, compared to baseline, for the 3 mg and placebo groups. Baseline volume was normalized for head size. Percent change is calculated by […]-multi-time point (MTP3) algorithm. The difference in the mean change in volume calculated to determine the impact treatment with CHS-131."}, "[3]": {"system": "MS patients in the relapsing and remitting course of the disease (RRMS)", "test": "Phase 2 trial: whole brain volume by serial MRIs", "method": "Whole brain volume was evaluated at baseline and six months in this study. Neural atrophy was measured by serial determination of brain volume using serial MRIs."}, "[4]": {"system": "MS patients in the relapsing and remitting course of the disease (RRMS)", "test": "Phase 2 trial: annualized confirmed relapse rate (ARR)", "method": "The study enrolled MS patients in the relapsing and remitting course of the disease (RRMS) who had been diagnosed within ≤3 years of enrollment. Patients had to be treatment-naïve, have ≥1 gadolinium-positive lesion within 12 months of enrollment, and have an Expanded Disability Status Score (EDSS) of 0-6 at screening. Part 1 was a double-blind, parallel-group, 6-month study. Patients were randomized to oral CHS-131 at 3 mg or 1 mg or placebo in a 1:1:1 ratio at 21 sites in Russia. Monthly MRIs were read in a blinded fashion at the Buffalo Neuroimaging and Analysis Center, Buffalo, N.Y., USA. Part 2 is an open label, 6-month, safety extension study, in which all subjects transition to 1 mg CHS-131 daily, to evaluate clinical response, CE lesions on MM, and safety. The ARR was lower for both 3 mg CHS-131 (0.26) and 1 mg (0.28) as compared with placebo (0.35). Thus, administering CHS-131 reduces the rate at which relapses of worsening neurological function (e.g. flare-ups or exacerbations) occur. Put otherwise, administration of CHS-131 increases the time between relapses."}},
  "data": [
    {"smiles": "O=S(=O)(Nc1cc(Cl)c(Oc2cnc3ccccc3c2)c(Cl)c1)c1ccc(Cl)cc1Cl", "note": "[CHS-131]", "values": [
      {"measurement": "slope of cortical atrophy at six months as a function of CE lesion number", "setting": "[1]; 1 mg/day", "value": "−0.01963"},
      {"measurement": "slope of cortical atrophy at six months as a function of CE lesion number", "setting": "[1]; 3 mg/day", "value": "−0.001783"},
      {"measurement": "Cortical volume rate of loss", "setting": "[2]; 3 Months", "value": "−0.297"},
      {"measurement": "Reduction in cortical volume loss from CHS-131, as compared to placebo", "setting": "[2]; 3 Months", "value": 42.6, "unit": "%"},
      {"measurement": "Cortical volume rate of loss", "setting": "[2]; 6 Months", "value": "−0.709"},
      {"measurement": "Reduction in cortical volume loss from CHS-131, as compared to placebo", "setting": "[2]; 6 Months", "value": 34.2, "unit": "%"},
      {"measurement": "Cortical volume, percent change from baseline to 6 month, Mean", "setting": "[2]; n=56", "value": "−0.709", "unit": "%"},
      {"measurement": "Cortical volume, percent change from baseline to 6 month, Median", "setting": "[2]; n=56", "value": "−0.832", "unit": "%"},
      {"measurement": "Cortical volume, percent change from baseline to 3 month, Mean", "setting": "[2]; n=61", "value": "−0.297", "unit": "%"},
      {"measurement": "Cortical volume, percent change from baseline to 3 month, Median", "setting": "[2]; n=61", "value": "−0.325", "unit": "%"},
      {"measurement": "less neural volume loss compared to placebo", "setting": "[3]; 1 mg daily, 6 months", "value": 13, "unit": "%"},
      {"measurement": "brain volume lost over 6 months", "setting": "[3]; 1 mg/day", "value": 0.14, "unit": "%"},
      {"measurement": "less parenchymal atrophy than the placebo treated cohort", "setting": "[3]; 3 mg daily, 6 months", "value": 50, "unit": "%"},
      {"measurement": "neural parenchyma volume lost over 6 months", "setting": "[3]; 3 mg/day", "value": 0.08, "unit": "%"},
      {"measurement": "Annualized Confirmed Relapse Rate (ARR)", "setting": "[4]; 1 mg", "value": 0.28},
      {"measurement": "Annualized Confirmed Relapse Rate (ARR)", "setting": "[4]; 3 mg", "value": 0.26}
    ]}
  ]
}
